In patent US8377929B2, “Crystalline forms of the tri-mesylate salt of perphenazine-GABA and process of producing the same” (Ramot at Tel-Aviv University Ltd., priority 2010, dated 2013):

Tests used:
Type in all cases: physicochemical
[1] = Moisture absorption/desorption (DVS); conditions: for Weight gain from 5-55% RH / Weight gain from 55-95% RH: DVS adsorption phase; for Weight gain from 55-95% RH: samples did not reach equilibration; for Weight loss from 95-5% RH: DVS desorption phase; for Weight loss at 5% RH: DVS, upon equilibration to 5% RH
Procedure: Moisture absorption/desorption (DVS) data was collected on a VTI SGA-100 Vapor Sorption Analyzer. Absorption and desorption data were collected over a range of 5% to 95% relative humidity (RH) at 10% RH intervals under a nitrogen purge. Samples were not dried prior to analyses. Equilibrium criteria used for analyses were less than 0.0100% weight change in 5 minutes, with a maximum equilibrium time of 3 hours if the weight criterion was not met. Data were not corrected for the initial moisture content of the samples. NaCl and PVP were used as calibration standards.

[2] = BET surface area (nitrogen absorption); conditions: 11-point BET, outgassed at 40° C. under vacuum
Procedure: Surface area data were collected using nitrogen absorption on a BET Micrometics Gemini V (11-point BET analysis) analyzer. The samples were outgassed at 40° C. under vacuum for at least 2 hours. SRM 1899 and SRM 1900 were used as the calibration standards.

Bulk and tapped density = experiment: Bulk and tapped density
Description: Samples were submitted to Particle Technology Labs (PTL), Downers Grove, Ill., for bulk and tapped density analyses.

[3] = Particle size (Malvern MS2000); design: unit not given here; conditions: particle size distribution, 0.1% SPAN 85 in hexane, sonication 10 seconds, unit μm
Description: Particle size data was acquired using a Malvern Instruments MS2000 equipped with a Hydro2000 μP dispersion unit. Data was collected and analyzed with Mastersizer 2000 v. 5.1 software, using volume based measurements. NIST traceable glass beads were used as the reference standard. […] Model: general purpose; Sensitivity: normal.

[4] = Stability and hygroscopy of crystalline Form B compared to crystalline Form A; conditions: as compared to crystalline Form A

Compound: CS(=O)(=O)O.CS(=O)(=O)O.CS(=O)(=O)O.NCCCC(=O)OCCN1CCN(CCCN2c3ccccc3Sc3ccc(Cl)cc32)CC1 [BL-1020 MSA salt crystalline Form B, perphenazine 4-aminobutyrate trimesylate]
- Weight gain from 5-55% RH ([1]; listed as 01BIL02-01-22): 0.4%
- Weight gain from 5-55% RH ([1]; listed as 01BIL02-02-22): 0.4%
- Weight gain from 5-55% RH ([1]; listed as 01BIL02-03-22): 0.4%
- Weight gain from 5-55% RH ([1]; listed as 01BIL02-04-22): 0.4%
- Weight gain from 5-55% RH ([1]; listed as 01BIL02-05-26): 0.4%
- Weight gain from 5-55% RH ([1]; listed as 06-01915-3): 0.6%
- Weight gain from 55-95% RH ([1]; listed as 01BIL02-01-22): 71.6%
- Weight gain from 55-95% RH ([1]; listed as 01BIL02-02-22): 69.8%
- Weight gain from 55-95% RH ([1]; listed as 01BIL02-03-22): 72.7%
- Weight gain from 55-95% RH ([1]; listed as 01BIL02-04-22): 70.5%
- Weight gain from 55-95% RH ([1]; listed as 01BIL02-05-26): 68.9%
- Weight gain from 55-95% RH ([1]; listed as 06-01915-3): 71.6%
- Weight loss from 95-5% RH ([1]; listed as 01BIL02-01-22): 67.0%
- Weight loss from 95-5% RH ([1]; listed as 01BIL02-02-22): 64.8%
- Weight loss from 95-5% RH ([1]; listed as 01BIL02-03-22): 67.6%
- Weight loss from 95-5% RH ([1]; listed as 01BIL02-04-22): 66.0%
- Weight loss from 95-5% RH ([1]; listed as 01BIL02-05-26): 64.8%
- Weight loss from 95-5% RH ([1]; listed as 06-01915-3): 66.9%
- Weight loss at 5% RH ([1]; listed as 01BIL02-01-22): 0.1%
- Weight loss at 5% RH ([1]; listed as 01BIL02-02-22): 0.1%
- Weight loss at 5% RH ([1]; listed as 01BIL02-03-22): 0.1%
- Weight loss at 5% RH ([1]; listed as 01BIL02-04-22): 0.1%
- Weight loss at 5% RH ([1]; listed as 01BIL02-05-26): 0.3%
- Weight loss at 5% RH ([1]; listed as 06-01915-3): 0.6%
- BET surface area ([2]; listed as 01BIL02-01-22): 4.77 m^2/g
- BET surface area ([2]; listed as 01BIL02-02-22): 4.55 m^2/g
- BET surface area ([2]; listed as 01BIL02-03-22): 4.93 m^2/g
- BET surface area ([2]; listed as 01BIL02-04-22): 4.57 m^2/g
- BET surface area ([2]; listed as 01BIL02-05-26): 2.67 m^2/g
- BET surface area ([2]; listed as 06-01915-3): 4.84 m^2/g
- Bulk density (Bulk and tapped density; listed as 01BIL02-01-22): 0.16 g/mL
- Tapped density (Bulk and tapped density; listed as 01BIL02-01-22): 0.25 g/mL
- Bulk density (Bulk and tapped density; listed as 01BIL02-02-22): 0.16 g/mL
- Tapped density (Bulk and tapped density; listed as 01BIL02-02-22): 0.24 g/mL
- Bulk density (Bulk and tapped density; listed as 01BIL02-03-22): 0.18 g/mL
- Tapped density (Bulk and tapped density; listed as 01BIL02-03-22): 0.26 g/mL
- Bulk density (Bulk and tapped density; listed as 01BIL02-04-22): 0.13 g/mL
- Tapped density (Bulk and tapped density; listed as 01BIL02-04-22): 0.22 g/mL
- Bulk density (Bulk and tapped density; listed as 06-01915-3): 0.18 g/mL
- Tapped density (Bulk and tapped density; listed as 06-01915-3): 0.24 g/mL
- d10 ([3]; listed as 01BIL02-01-22): 2.1
- d50 ([3]; listed as 01BIL02-01-22): 5.8
- d90 ([3]; listed as 01BIL02-01-22): 18.3
- d10 ([3]; listed as 01BIL02-02-22): 2.1
- d50 ([3]; listed as 01BIL02-02-22): 6.1
- d90 ([3]; listed as 01BIL02-02-22): 22.5
- d10 ([3]; listed as 01BIL02-03-22): 2.1
- d50 ([3]; listed as 01BIL02-03-22): 6.2
- d90 ([3]; listed as 01BIL02-03-22): 19.7
- d10 ([3]; listed as 01BIL02-04-22): 2.3
- d50 ([3]; listed as 01BIL02-04-22): 6.8
- d90 ([3]; listed as 01BIL02-04-22): 21.8
- d10 ([3]; listed as 06-01915-3): 3.8
- d50 ([3]; listed as 06-01915-3): 9.3
- d90 ([3]; listed as 06-01915-3): 41.8
- Hygroscopy [4]: reduced hygroscopy
- Stability [4]: higher stability
